Each structure is given as a SMILES string. Where two headings read alike, the source gives them in different places.

For one assay, the target named is T1, ITK kinase domain (Homo sapiens, UniProt Q08881).
T1 construct: N-terminally His-tagged ITK kinase domain (amino acids 352-617); His (N); made in house
T1 sequence (Q08881 352-617): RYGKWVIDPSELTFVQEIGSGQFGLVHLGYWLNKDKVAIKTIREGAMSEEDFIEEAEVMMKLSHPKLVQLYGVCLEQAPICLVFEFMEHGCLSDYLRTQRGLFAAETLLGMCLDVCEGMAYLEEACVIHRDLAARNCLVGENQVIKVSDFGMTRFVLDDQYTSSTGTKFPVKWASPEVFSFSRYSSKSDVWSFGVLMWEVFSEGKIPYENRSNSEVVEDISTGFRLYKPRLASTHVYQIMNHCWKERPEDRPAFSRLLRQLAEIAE
As to the kind of experiment: In vitro kinase assay (HITHUNTER enzyme fragment complementation), ITK. Type of assay: biochemical. How it is done:
Compounds were screened using the HITHUNTER™ enzyme fragment complementation method (Discoverx). Briefly, a recombinantly produced, N-terminally His-tagged ITK kinase domain (amino acids 352-617) was incubated with various concentrations of individual compounds. ATP and substrate were added, and the kinase reaction was allowed to proceed for 2-16 hours. Commercially available detection reagents were added and allowed to react for 2-4 hours. The reaction was evaluated by luminescence. Initial results were confirmed using full-length recombinant ITK protein.
In order to confirm the mechanism by which compounds depicted herein interact with the kinase domain of Tec and EGFR kinases, we created a point mutant of the ITK kinase domain, whereby the key amino acid, namely C442 was mutated to alanine. The protein was expressed in a commercial baculovirus expression system using the manufacturer's general protocol (Invitrogen, pBlueBac). Protein was expressed and purified using standard techniques. […] While the activity of WT-ITK was inhibited by compounds depicted in this application, the same compounds had no activity towards the C442A mutant kinase domain.

The target in the next assay is T2, BTK kinase domain (Homo sapiens, UniProt Q06187).
T2 construct: The kinase domains of BTK, LCK and ERK were expressed as recombinant purified proteins; made in house
T2 sequence (Q06187 402-655 limits assumed): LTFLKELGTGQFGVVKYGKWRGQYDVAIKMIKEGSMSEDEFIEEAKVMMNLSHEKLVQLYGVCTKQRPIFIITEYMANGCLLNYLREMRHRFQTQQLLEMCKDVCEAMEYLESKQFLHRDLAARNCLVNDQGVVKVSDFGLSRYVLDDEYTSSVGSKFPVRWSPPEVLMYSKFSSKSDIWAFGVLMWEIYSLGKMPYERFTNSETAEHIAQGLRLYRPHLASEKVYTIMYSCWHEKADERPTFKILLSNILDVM
As to the kind of experiment: In vitro kinase assay (HITHUNTER), BTK. Type of assay: biochemical. The source says:
Similarly, commercially available reagents such as HITHUNTER™ were used to evaluate the effect of compounds on the activity of additional kinases. The kinase domains of BTK, LCK and ERK were expressed as recombinant purified proteins were used for these studies.

[1] abbreviates: Table 3, Compound, read-out: IC50 ITK.

In the case of `CC(C)CN(C)CCC(=O)c1ccc2ccccc2c1`, the IC50 – broadly, the midpoint of a concentration-inhibition curve – at ITK kinase domain (Table 1, ITK, read-out: IC50) was 13.6 nM.
Same read-out and setting: in the case of `O=C(CCN1CCN(c2ccccc2)CC1)c1ccc2ccccc2c1` it was 4.26 nM; in that of `CC(C)C1CCN(CCC(=O)c2ccc3ccccc3c2)CC1`, 13.3 nM.
The same measure, in the same setting: in the case of `CC(C)C1CCN(CCC(=O)c2ccc3ccccc3c2)C1` (centres unmarked) it was 6.86 nM.
On to `COc1ccc(C(=O)CCN2CCOCC2)cc1[N+](=O)[O-]`, for which, on ITK kinase domain (Table 2, read-out: IC50 ITK), the IC50 stood at 20 nM.
Take `CN(C)C1CCN(CCC(=O)C2=CC3NC(=O)COC3C=C2)C1` (centres unmarked): the IC50 on ITK kinase domain (setting [1]) was 72 nM; at BTK kinase domain (Table 3, Compound) it was 1890 nM.
For `CN(CCC(=O)c1ccc2c(c1)NC(=O)CO2)Cc1ccc(F)cc1`, the IC50 on ITK kinase domain (setting [1]) amounted to 10 nM; against BTK kinase domain (Table 3, Compound), 300 nM.
As for `CN(C)CCN1CCN(CCC(=O)c2ccc3c(c2)NC(=O)CO3)CC1`, the IC50 on ITK kinase domain (setting [1]) came to 18 nM; at BTK kinase domain (Table 3, Compound), 481 nM.
Regarding `CN(C)C1CCN(CCC(=O)c2ccc3c(c2)NC(=O)CO3)CC1`, the IC50 at ITK kinase domain (setting [1]) was 13 nM; at BTK kinase domain (Table 3, Compound), 150 nM.
As to `CC(C)N(CCC(=O)c1ccc2c(c1)NC(=O)CO2)C(C)C`, the IC50 at ITK kinase domain (setting [1]) was found to be 23 nM; at BTK kinase domain (Table 3, Compound), 544 nM.
For the compound `CN(CCC(=O)c1ccc2ccccc2c1)Cc1ccc(C(F)(F)F)cc1`, at ITK kinase domain (Table 4, read-out: IC50 ITK), the concentration for half-maximal inhibition (IC50) worked out at 56.7 nM.
Same read-out and setting: in the case of `O=C(CCN1CCN(Cc2ccccc2)CC1)c1ccc2ccccc2c1` it was 30.3 nM; in that of `O=C(CCN1CCC(c2ccccc2)C1)c1ccc2ccccc2c1` (centres unmarked), 22.8 nM.
Take `O=C(CCN1CCOCC1)c1ccc2ccccc2n1`: the IC50 on ITK kinase domain (Table 4, read-out: IC50 ITK) is 48 nM; against BTK kinase domain (Table 4), 5000 nM.
On the same counts, the results for `O=C(CCN1CCOCC1)c1cnc2ccccc2c1` are 189 nM and 100 nM.
On the same counts, the results for `O=C(CCN1CCOCC1)c1c[nH]c2ccccc12` are 176 nM and 8170 nM.
The corresponding values for `O=C(CCN1CCOCC1)c1n[nH]c2ccccc12` are 49 nM and 296 nM.
`O=C(CCN1CCOCC1)c1csc2ccccc12`: the IC50 was 134 nM on ITK kinase domain (Table 4, read-out: IC50 ITK) and 611 nM against BTK kinase domain (Table 4).
Consider `O=C(CCN1CCOCC1)c1ccc2sccc2c1`, for which the IC50 at ITK kinase domain (Table 4, read-out: IC50 ITK) came out at 60 nM; against BTK kinase domain (Table 4), 334 nM.
Regarding `O=C(CCN1CCOCC1)c1cc2ccccc2o1`, the IC50 at ITK kinase domain (Table 4, read-out: IC50 ITK) was 56400 nM. Besides, at BTK kinase domain (Table 4), the “IC50 BTK” value was “no IC50”.
For `O=C(CCN1CCOCC1)c1cc2ccccc2s1`, the IC50 stood at 10 nM at ITK kinase domain (Table 4, read-out: IC50 ITK) and 17 nM against BTK kinase domain (Table 4).
On to `O=C(CCN1CCOCC1)c1ccc2cc(O)ccc2c1`, for which the IC50 at ITK kinase domain (Table 4, read-out: IC50 ITK) turned out to be 30 nM; at BTK kinase domain (Table 4), 6 nM.
For `O=C(O)c1ccc2cc(C(=O)CCN3CCOCC3)ccc2c1`, the IC50 at ITK kinase domain (Table 4, read-out: IC50 ITK) was 3340 nM; on BTK kinase domain (Table 4), 2360 nM.
The corresponding values for `O=CNc1ccc2cc(C(=O)CCN3CCOCC3)ccc2c1` are 42 nM and 2 nM.
`O=C(CCN1CCCCC1)c1ccc2ccccc2c1`: the IC50 on ITK kinase domain (Table 5, read-out: IC50 ITK) was 537 nM.
For the compound `CC1CCCN1CCC(=O)c1ccc2ccccc2c1` (centres unmarked), the IC50 on ITK kinase domain (Table 5, read-out: IC50 ITK) amounted to 852 nM.
Same read-out and setting: in the case of `CN(C)CCC(=O)c1ccc2ccccc2c1` it was 161 nM; in that of `CC1CCN(CCC(=O)c2ccc3ccccc3c2)CC1`, 310 nM; in that of `O=C(CCN1CCC(c2ccccn2)C1)c1ccc2ccccc2c1` (centres unmarked), 35.9 nM.
As to `CC(C)N(C)CCC(=O)c1ccc2ccccc2c1`, the IC50 on ITK kinase domain (Table 5, read-out: IC50 ITK) was 16.3 nM.
Consider `O=C(CCN1CCNCC1)c1ccc2ccccc2c1`, for which the IC50 came to 117 nM on ITK kinase domain (Table 5, read-out: IC50 ITK) and 410 nM against BTK kinase domain (Table 5).
The corresponding values for `NC(=O)N1CCN(CCC(=O)c2ccc3ccccc3c2)CC1` are 23 nM and 153 nM.
On the same counts, the results for `CN(C)C(=O)N1CCN(CCC(=O)c2ccc3ccccc3c2)CC1` are 56 nM and 452 nM.
As to `O=C(CCN1CCN(C(=O)N2CCOCC2)CC1)c1ccc2ccccc2c1`, the IC50 at ITK kinase domain (Table 5, read-out: IC50 ITK) came out at 60 nM; at BTK kinase domain (Table 5) it was 242 nM.
In the case of `CC(=O)N1CCN(CCC(=O)c2ccc3ccccc3c2)CC1`, the IC50 at ITK kinase domain (Table 5, read-out: IC50 ITK) came out at 66 nM; against BTK kinase domain (Table 5), 89 nM.
On the same counts, the results for `CC(C)(C)C(=O)N1CCN(CCC(=O)c2ccc3ccccc3c2)CC1` are 64 nM and 360 nM.
For the compound `O=C(CCN1CCN(C(=O)c2ccncc2)CC1)c1ccc2ccccc2c1`, the IC50 amounted to 54 nM on ITK kinase domain (Table 5, read-out: IC50 ITK) and 18 nM against BTK kinase domain (Table 5).
Regarding `O=C(CCN1CCCCNC1)c1ccc2ccccc2c1`, the IC50 on ITK kinase domain (Table 5, read-out: IC50 ITK) was found to be 87 nM; on BTK kinase domain (Table 5) it was 51 nM.
On the same counts, the results for `O=C(CCN1CCSCC1)c1ccc2ccccc2c1` are 31 nM and 71 nM.
On the same counts, the results for `O=C(CCN1CCS(=O)(=O)CC1)c1ccc2ccccc2c1` are 66 nM and 117 nM.
For the compound `O=C(CCN1CCC[C@@H]1CO)c1ccc2ccccc2c1`, the IC50 on ITK kinase domain (Table 5, read-out: IC50 ITK) worked out at 49 nM; at BTK kinase domain (Table 5) it was 123 nM.
Take `OC(CCN1CCOCC1)c1ccc2ccccc2c1` (centres unmarked): the “IC50 ITK” value on ITK kinase domain (Table 7, elimination mechanism) was “no IC50”.
As for `CC(C)(CN1CCCCC1)C(=O)c1ccc2ccccc2c1`, the “IC50 ITK” value against ITK kinase domain (Table 7, elimination mechanism) is “no IC50”.
`CC(C)N(CCC(=O)c1ccc2ccccc2c1)C(C)C` [drawing 104]: the IC50 at ITK kinase domain (Table 1, ITK, read-out: IC50) came out at 18.1 nM.
On the same count and under the same terms, in the case of `CN(CCC(=O)c1ccc2ccccc2c1)Cc1ccccc1` [drawing 107] it was 25.8 nM.
In the case of `CN1CCN(CCC(=O)c2ccc3ccccc3c2)CC1` [drawing 110], the IC50 on ITK kinase domain (Table 1, ITK, read-out: IC50) was 50.4 nM.
Still for that read-out and setting: in the case of `O=C(CCN1CCN(CC2CCCCC2)CC1)c1ccc2ccccc2c1` [drawing 111] it was 11.4 nM.
With `O=C(CCN1Cc2ccccc2C1)c1ccc2ccccc2c1` [drawing 114], the IC50 at ITK kinase domain (Table 1, ITK, read-out: IC50) came out at 28.6 nM.
With `O=C(CCN1CCc2ccccc2C1)c1ccc2ccccc2c1` [drawing 115], the IC50 at ITK kinase domain (Table 1, ITK, read-out: IC50) amounted to 18.3 nM.
Same read-out and setting: in the case of `COc1cc2c(cc1OC)CN(CCC(=O)c1ccc3ccccc3c1)CC2` [drawing 116] it was 0.85 nM; in that of `O=C(CCN1CCOCC1)c1ccc2ccccc2c1` [drawing 117], 71.9 nM; in that of `CN(CCC(=O)c1ccc2ccccc2c1)Cc1ccco1` [drawing 118], 19.6 nM.
Consider `O=C(CCN1CCC(Cc2ccccc2)CC1)c1ccc2ccccc2c1` [drawing 182], for which the IC50 at ITK kinase domain (Table 4, read-out: IC50 ITK) stood at 92.8 nM.
The same measure, in the same setting: in the case of `O=C(CCN1CCCC1)c1ccc2ccccc2c1` [drawing 184] it was 74.9 nM.
On to `CN(CCC(=O)c1ccc2ccccc2c1)Cc1ccccc1` [drawing 203], for which the IC50 at ITK kinase domain (Table 5, read-out: IC50 ITK) was 16.9 nM.
In the case of `O=C(CCN1CCN(c2ccccn2)CC1)c1ccc2ccccc2c1` [drawing 205], the IC50 at ITK kinase domain (Table 5, read-out: IC50 ITK) was found to be 14.8 nM.
Same read-out and setting: in the case of `CN1CCN(CCC(=O)c2ccc3ccccc3c2)CC1` [drawing 208] it was 30.9 nM.
In the case of `O=C(CCN1CCc2ccccc2C1)c1ccc2ccccc2c1` [drawing 209], on ITK kinase domain (Table 5, read-out: IC50 ITK), the IC50 amounted to 21.2 nM.
Same read-out and setting: in the case of `O=C(CCN1CCN(c2ccccn2)CC1)c1ccc2ccccc2c1` [drawing 211] it was 24.2 nM; in that of `CN(CCC(=O)c1ccc2ccccc2c1)Cc1ccco1` [drawing 215], 18.7 nM.
On the same count and under the same terms, in the case of `CN(C)C1CCN(CCC(=O)c2ccc3ccccc3c2)CC1` [drawing 216] it was 9.5 nM; in that of `O=C(CCN1Cc2ccccc2C1)c1ccc2ccccc2c1` [drawing 217], 16.2 nM; in that of `O=C(CCN1CCN(CC2CCCCC2)CC1)c1ccc2ccccc2c1` [drawing 219], 14.7 nM.
For `CC(C)N(CCC(=O)c1ccc2ccccc2c1)C(C)C` [drawing 220], the concentration for half-maximal inhibition (IC50) on ITK kinase domain (Table 5, read-out: IC50 ITK) was determined as 9.2 nM.
Regarding `O=C(CCN1CCOCC1)c1ccc2ccccc2c1` [drawing 254], at ITK kinase domain (Table 7, elimination mechanism, read-out: IC50 ITK), the IC50 is 44.6 nM.

The values are drawn from US20150290200A1, “INTRACELLULAR KINASE INHIBITORS” (Pharmacyclics Inc., priority 2006, published 2015).
